Measurements: patent US11447486B2, “2-amino-benzimidazole derivatives and their use as 5-lipoxygenase and/or prostaglandin E synthase inhibitors” (INSTITUT PASTEUR KOREA, priority 2014, dated 2022)
Where two headings read alike, the source gives them in different places.

Legend:
human 5-LOX = molecular target: T1, human 5-LOX (Homo sapiens, UniProt P09917); experiment: 5-LOX enzyme activity, fluorescence method (5-HPETE, H2DCFDA); assay type: biochemical; settings: read-out: 5-LO (IC50)
T1 construct: purchased Cayman 60402; host or cells: insect cells (lysate)
T1 sequence (P09917 1-674): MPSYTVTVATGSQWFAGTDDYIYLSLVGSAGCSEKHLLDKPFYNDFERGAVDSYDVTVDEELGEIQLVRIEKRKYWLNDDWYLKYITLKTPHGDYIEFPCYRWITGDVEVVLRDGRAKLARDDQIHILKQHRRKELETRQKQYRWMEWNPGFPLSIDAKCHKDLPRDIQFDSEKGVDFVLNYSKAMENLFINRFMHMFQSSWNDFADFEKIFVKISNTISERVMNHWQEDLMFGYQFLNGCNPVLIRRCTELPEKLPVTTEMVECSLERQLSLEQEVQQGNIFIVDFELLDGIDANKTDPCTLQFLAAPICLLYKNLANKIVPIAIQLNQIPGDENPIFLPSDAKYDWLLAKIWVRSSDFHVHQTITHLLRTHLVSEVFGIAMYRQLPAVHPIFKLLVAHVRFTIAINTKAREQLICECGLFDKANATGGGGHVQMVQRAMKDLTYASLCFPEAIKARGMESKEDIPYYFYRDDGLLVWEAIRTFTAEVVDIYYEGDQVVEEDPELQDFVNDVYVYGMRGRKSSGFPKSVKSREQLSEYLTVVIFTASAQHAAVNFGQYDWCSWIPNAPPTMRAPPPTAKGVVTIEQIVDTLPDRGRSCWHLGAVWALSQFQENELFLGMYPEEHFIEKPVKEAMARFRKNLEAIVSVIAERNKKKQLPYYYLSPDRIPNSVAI
How it was run: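 Fluorescence-based read-out, run entirely at room temperature. Enzyme mixture was exposed to a dose range of compound from 0.5 nM to 10 uM for 5 min before ATP and arachidonic acid were added to final levels of 100 uM and 3 uM.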

[1] = system: Rat basophilic leukemia (RBL) cells; experiment: LTB4 secretion assay in RBL (rat basophilic leukemia cells); assay type: cell-based
How it was run: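 LTB4 released into supernatant was measured by EIA after 10 min at 37 °C with arachidonic acid (2.5 uM final) and calcium ionophore A23187 (5 uM final). Before stimulation, cells plated 2×10^4/well overnight received compound doses (5 nM to 100 uM) for 15 min in 0.5% FBS medium.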

Rat whole blood (RWB) = experiment: LTB4 secretion assay in RWB (rat whole blood); assay type: cell-based
How it was run: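 LTB4 release was measured by EIA in supernatants of pooled, sodium heparin rat blood (male Sprague Dawley, 6-9 weeks) diluted 1:1 with RPMI. Compounds (2.5 nM to 50 uM) were added 15 min before A23187 (10 uM final), with 10 min stimulation at 37 °C before ice-cold PBS quench.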

CCn1c(NCc2ccc(Oc3ncc(Cl)cn3)cc2)nc2ccc(Nc3cc(C(F)(F)F)n(C)n3)cc21 [Compound 504]
IC50 (human 5-LOX): 1 to 10 µM | EC50 ([1]; Rattus norvegicus, RBL): < 10 µM | EC50 (Rat whole blood (RWB); Rattus norvegicus): < 10 µM

CCC(Nc1nc2ccc(Nc3cc(C(F)(F)F)n(C)n3)cc2n1C)c1ccc(Oc2ncc(Cl)cn2)cc1 (stereo not drawn) [Compound 505]
IC50 (human 5-LOX): < 1 µM | EC50 ([1]; Rattus norvegicus, RBL): < 10 µM | EC50 (Rat whole blood (RWB); Rattus norvegicus): < 10 µM

CCn1c(NCc2ccc(Oc3ncc(Cl)cn3)cc2F)nc2ccc(Nc3cc(C(F)(F)F)n(C)n3)cc21 [Compound 506]
IC50 (human 5-LOX): > 10 µM | EC50 ([1]; Rattus norvegicus, RBL): < 10 µM | EC50 (Rat whole blood (RWB); Rattus norvegicus): < 10 µM

CCn1c(NCc2ccc(Oc3ncc(C(F)(F)F)cn3)cc2)nc2ccc(Nc3cc(C(C)(C)C)[nH]n3)cc21 [Compound 507]
IC50 (human 5-LOX): < 1 µM | EC50 ([1]; Rattus norvegicus, RBL): < 10 µM | EC50 (Rat whole blood (RWB); Rattus norvegicus): 10 to 20 µM

CCn1c(NCc2ccc(Oc3ncc(C(F)(F)F)cn3)cc2)nc2ccc(Nc3n[nH]c(C)c3Cl)cc21 [Compound 508]
IC50 (human 5-LOX): 1 to 10 µM | EC50 ([1]; Rattus norvegicus, RBL): < 10 µM | EC50 (Rat whole blood (RWB); Rattus norvegicus): < 10 µM

CCn1c(NCc2ccc(Oc3ncc(Cl)cn3)cc2)nc2ccc(Nc3cc(C(C)(C)C)[nH]n3)cc21 [Compound 509]
IC50 (human 5-LOX): < 1 µM | EC50 ([1]; Rattus norvegicus, RBL): < 10 µM | EC50 (Rat whole blood (RWB); Rattus norvegicus): < 10 µM

CCn1c(NCc2ccc(Oc3ncc(Cl)cn3)cc2)nc2ccc(Nc3n[nH]c(C)c3Cl)cc21 [Compound 512]
IC50 (human 5-LOX): < 1 µM | EC50 ([1]; Rattus norvegicus, RBL): < 10 µM | EC50 (Rat whole blood (RWB); Rattus norvegicus): < 10 µM

CCn1c(NCc2ccc(Oc3ncc(C(F)(F)F)cn3)cc2)nc2ccc(Nc3cc(C(C)(C)C)[nH]n3)cc21 [Compound 513]
IC50 (human 5-LOX): < 1 µM | EC50 [1]: < 10 µM | EC50 (Rat whole blood (RWB)): < 10 µM

CCn1c(NCc2ccc(Oc3cnc(Cl)cn3)cc2)nc2ccc(Nc3cc(C(C)(C)C)[nH]n3)cc21 [Compound 514]
IC50 (human 5-LOX): < 1 µM | EC50 ([1]; Rattus norvegicus, RBL): < 10 µM | EC50 (Rat whole blood (RWB); Rattus norvegicus): < 10 µM

CCn1c(NCc2ccc(Oc3ncc(C(F)(F)F)cn3)cc2)nc2ccc(Nc3n[nH]c(C)c3Cl)cc21 [Compound 516]
IC50 (human 5-LOX): > 10 µM | EC50 [1]: < 10 µM | EC50 (Rat whole blood (RWB)): < 10 µM

CCC(Nc1nc2ccc(Nc3cc(C(F)(F)F)n(C)n3)cc2n1C)c1ccc(Oc2cnc(Cl)cn2)cc1 (stereo not drawn) [Compound 517]
IC50 (human 5-LOX): 1 to 10 µM | EC50 ([1]; Rattus norvegicus, RBL): < 10 µM | EC50 (Rat whole blood (RWB); Rattus norvegicus): < 10 µM

Cc1[nH]nc(Nc2ccc3nc(NCc4ccc(Oc5ccc(Cl)cn5)cc4)n(C)c3c2)c1Cl [Compound 518]
IC50 (human 5-LOX): > 10 µM | EC50 ([1]; Rattus norvegicus, RBL): < 10 µM | EC50 (Rat whole blood (RWB); Rattus norvegicus): < 10 µM

Cn1nc(Nc2ccc3nc(NCc4ccc(Oc5ncc(C(F)(F)F)cn5)cc4)n(C)c3c2)cc1C(F)(F)F [Compound 519]
IC50 (human 5-LOX): > 10 µM | EC50 ([1]; Rattus norvegicus, RBL): < 10 µM | EC50 (Rat whole blood (RWB); Rattus norvegicus): < 10 µM

CCn1c(NCc2ccc(Oc3cnc(C(F)(F)F)cn3)cc2)nc2ccc(Nc3cc(C(F)(F)F)n(C)n3)cc21 [Compound 523]
IC50 (human 5-LOX): > 10 µM | EC50 ([1]; Rattus norvegicus, RBL): < 10 µM | EC50 (Rat whole blood (RWB); Rattus norvegicus): 10 to 20 µM

Cn1nc(Nc2cc(F)c3nc(NCc4ccc(Oc5ncc(Cl)cn5)cc4)n(C)c3c2)cc1C(F)(F)F [Compound 524]
IC50 (human 5-LOX): > 10 µM | EC50 ([1]; Rattus norvegicus, RBL): < 10 µM | EC50 (Rat whole blood (RWB); Rattus norvegicus): 10 to 20 µM

CCn1c(NCc2ccc(Oc3ncc(C(F)(F)F)cn3)cc2)nc2ccc(Nc3ccn(C)n3)cc21 [Compound 525]
IC50 (human 5-LOX): < 1 µM | EC50 ([1]; Rattus norvegicus, RBL): < 10 µM | EC50 (Rat whole blood (RWB); Rattus norvegicus): < 10 µM

Cn1nc(C(F)(F)F)cc1Nc1ccc2nc(NCc3ccc(Oc4ncc(Cl)cn4)cc3)n(C)c2c1 [Compound 526]
IC50 (human 5-LOX): 1 to 10 µM | EC50 ([1]; Rattus norvegicus, RBL): < 10 µM | EC50 (Rat whole blood (RWB); Rattus norvegicus): < 10 µM

CCn1c(NCc2ccc(Oc3ncc(C(F)(F)F)cn3)cc2F)nc2ccc(Nc3cc(C(F)(F)F)n(C)n3)cc21 [Compound 527]
IC50 (human 5-LOX): > 10 µM | EC50 ([1]; Rattus norvegicus, RBL): < 10 µM | EC50 (Rat whole blood (RWB); Rattus norvegicus): < 10 µM

CCC(Nc1nc2ccc(Nc3cc(C(F)(F)F)n(C)n3)cc2n1C)c1ccc(Oc2ncc(C(F)(F)F)cn2)cc1F (stereo not drawn) [Compound 528]
IC50 (human 5-LOX): > 10 µM | EC50 ([1]; Rattus norvegicus, RBL): < 10 µM | EC50 (Rat whole blood (RWB); Rattus norvegicus): < 10 µM

CCC(Nc1nc2ccc(Nc3cc(C(C)C)[nH]n3)cc2n1C)c1ccc(Oc2ncc(Cl)cn2)cc1 (stereo not drawn) [Compound 529]
IC50 (human 5-LOX): < 1 µM | EC50 ([1]; Rattus norvegicus, RBL): < 10 µM | EC50 (Rat whole blood (RWB); Rattus norvegicus): < 10 µM

CCC(Nc1nc2ccc(Nc3cc(C4CC4)[nH]n3)cc2n1C)c1ccc(Oc2ncc(Cl)cn2)cc1 (stereo not drawn) [Compound 530]
IC50 (human 5-LOX): < 1 µM | EC50 ([1]; Rattus norvegicus, RBL): < 10 µM | EC50 (Rat whole blood (RWB); Rattus norvegicus): < 10 µM

CCn1c(NCc2ccc(Oc3ncc(C(F)(F)F)cn3)cc2)nc2ccc(Nc3cc(C)[nH]n3)cc21 [Compound 531]
IC50 (human 5-LOX): < 1 µM | EC50 ([1]; Rattus norvegicus, RBL): < 10 µM | EC50 (Rat whole blood (RWB); Rattus norvegicus): < 10 µM

Cn1nc(Nc2ccc3nc(NCc4ccc(Oc5ncc(Cl)cn5)cc4)n(C)c3c2)cc1C(F)F [Compound 532]
IC50 (human 5-LOX): < 1 µM | EC50 ([1]; Rattus norvegicus, RBL): < 10 µM | EC50 (Rat whole blood (RWB); Rattus norvegicus): < 10 µM

Cn1nc(C(F)F)cc1Nc1ccc2nc(NCc3ccc(Oc4ncc(Cl)cn4)cc3)n(C)c2c1 [Compound 533]
IC50 (human 5-LOX): < 1 µM | EC50 ([1]; Rattus norvegicus, RBL): < 10 µM | EC50 (Rat whole blood (RWB); Rattus norvegicus): < 10 µM

CCC(Nc1nc2ccc(Nc3cc(C)[nH]n3)cc2n1C)c1ccc(Oc2ncc(C(F)(F)F)cn2)cc1 (stereo not drawn) [Compound 534]
IC50 (human 5-LOX): < 1 µM | EC50 ([1]; Rattus norvegicus, RBL): < 10 µM | EC50 (Rat whole blood (RWB); Rattus norvegicus): < 10 µM

CCC(Nc1nc2ccc(Nc3cc(C(F)F)[nH]n3)cc2n1C)c1ccc(Oc2ncc(Cl)cn2)cc1 (stereo not drawn) [Compound 535]
IC50 (human 5-LOX): < 1 µM | EC50 ([1]; Rattus norvegicus, RBL): < 10 µM | EC50 (Rat whole blood (RWB); Rattus norvegicus): < 10 µM

CCn1c(NCc2ccc(Oc3ncc(Cl)cn3)cc2F)nc2ccc(Nc3cc(C)[nH]n3)cc21 [Compound 536]
IC50 (human 5-LOX): < 1 µM | EC50 ([1]; Rattus norvegicus, RBL): < 10 µM | EC50 (Rat whole blood (RWB); Rattus norvegicus): < 10 µM

CCC(Nc1nc2ccc(Nc3cc(C)[nH]n3)cc2n1C)c1ccc(Oc2ncc(Cl)cn2)cc1F (stereo not drawn) [Compound 537]
IC50 (human 5-LOX): < 1 µM | EC50 ([1]; Rattus norvegicus, RBL): < 10 µM | EC50 (Rat whole blood (RWB); Rattus norvegicus): < 10 µM

Cn1nc(Nc2ccc3nc(NCc4ccc(Oc5ncc(Cl)cn5)cc4)n(C)c3c2)cc1CF [Compound 538]
IC50 (human 5-LOX): < 1 µM | EC50 ([1]; Rattus norvegicus, RBL): < 10 µM | EC50 (Rat whole blood (RWB); Rattus norvegicus): < 10 µM

CCn1c(NCc2ccc(Oc3ncc(C(F)(F)F)cn3)cc2F)nc2ccc(Nc3cc(C)[nH]n3)cc21 [Compound 540]
IC50 (human 5-LOX): < 1 µM | EC50 ([1]; Rattus norvegicus, RBL): < 10 µM | EC50 (Rat whole blood (RWB); Rattus norvegicus): < 10 µM

CCC(Nc1nc2ccc(Nc3cc(C)[nH]n3)cc2n1C)c1ccc(Oc2ncc(C(F)(F)F)cn2)cc1F (stereo not drawn) [Compound 541]
IC50 (human 5-LOX): < 1 µM | EC50 ([1]; Rattus norvegicus, RBL): < 10 µM | EC50 (Rat whole blood (RWB); Rattus norvegicus): < 10 µM

CCn1c(NCc2ccc(Oc3ncc(C(F)(F)F)cn3)cc2F)nc2ccc(NC3COC3)cc21 [Compound 542]
IC50 (human 5-LOX): < 1 µM | EC50 ([1]; Rattus norvegicus, RBL): < 10 µM | EC50 (Rat whole blood (RWB); Rattus norvegicus): < 10 µM

CCC(Nc1nc2ccc(NC3COC3)cc2n1C)c1ccc(Oc2ncc(C(F)(F)F)cn2)cc1F (stereo not drawn) [Compound 543]
IC50 (human 5-LOX): < 1 µM | EC50 ([1]; Rattus norvegicus, RBL): < 10 µM | EC50 (Rat whole blood (RWB); Rattus norvegicus): < 10 µM

CCn1c(NCc2ccc(Oc3ncc(OC(F)(F)F)cn3)cc2)nc2ccc(Nc3cc(C(F)(F)F)n(C)n3)cc21 [Compound 545]
IC50 (human 5-LOX): 1 to 10 µM | EC50 ([1]; Rattus norvegicus, RBL): < 10 µM | EC50 (Rat whole blood (RWB); Rattus norvegicus): < 10 µM

Cn1c(NCc2ccc(Oc3ccc(C(F)(F)F)cn3)cc2F)nc2ccc(NC3COC3)cc21 [Compound 546]
IC50 (human 5-LOX): < 1 µM | EC50 ([1]; Rattus norvegicus, RBL): < 10 µM | EC50 (Rat whole blood (RWB); Rattus norvegicus): < 10 µM

CCC(Nc1nc2ccc(NC3COC3)cc2n1C)c1ccc(Oc2ncc(C(F)(F)F)cn2)cc1 (stereo not drawn) [Compound 547]
IC50 (human 5-LOX): < 1 µM | EC50 ([1]; Rattus norvegicus, RBL): < 10 µM | EC50 (Rat whole blood (RWB); Rattus norvegicus): < 10 µM
